Results on 9 molecules are retold here after patent EP3042903B1, “Substituted hetero-bicyclic compounds, compositions and medicinal applications thereof” (Impetis Biosciences Ltd., priority 2015, dated 2016).

Experiment [1] concerns the target T1, Recombinant Human Bruton's tyrosine kinase (Btk) (Homo sapiens, UniProt Q06187).
T1 construct: Full length human BTK (hBTK, Genbank#NM_000061.2) was cloned into pFastBac-HTB vector; 6XHis (N); made in house; host or cells: Sf9 cells (Bac-to-Bac baculovirus expression system)
The experiment is described as follows: Recombinant Human Bruton's tyrosine kinase (Btk) inhibition assay (HTRF KinEASE-TK). It is filed as biochemical. To be noted: 20 ng/ml rhBtk, 77 µM ATP (KM), 1 µM TK-Biotin Substrate, 90 minutes; read-out: IC50 (nM) in recombinant hBTK assay. On the procedure: Recombinant Human Bruton's tyrosine kinase (Btk) inhibition assay.
Full length human BTK (hBTK, Genbank#NM_000061.2) was cloned into pFastBac-HTB vector (Invitrogen, cat#10359-016). hBTK gene was expressed with N'-terminal 6XHis tag in Sf9 cells using Bac-to-Bac ^(R) Baculovirus expression system (Invitrogen, cat#10359-016) and the recombinant protein was purified by Ni-NTA method. The elution buffer for hBTK consisted of 50 mM Hepes pH 8.0, 300 mM NaCl, 10% glycerol, 1 mM dithiothreitol and 200 mM imidazole.
The inhibition assays were performed using the generic tyrosine kinase assay kit from Cis Bio (HTRF® KinEASE - TK™ # 62TK0PEB). The assay is based on the principle of fluorescence resonance energy transfer (FRET) between the Europium Cryptate labeled anti-phosphotyrosine antibody and streptavidin labeled fluorophore, XL-665. In an uninhibited kinase reaction the biotinylated peptide substrate (Tk-Biotin) gets phosphorylated at an intermediate tyrosine site which is captured by anti-phosphotyrosine antibody which eventually acts as a FRET donor. The streptavidin labeled XL-665 binds strongly to the Tk-Biotin substrate and act as a FRET acceptor. The resultant FRET signal is measured at 665 nm. A ratio of this specific fluorescence (665nm) to the background fluorescence (620nm), conferred by the free antibody, is directly proportional to the kinase activity.
The Btk inhibition assays were performed using 20 ng/ml of rhBtk in a final volume of 10µl reaction buffer containing 77 µM ATP and 1 µM TK-Biotin Substrate in 50 mM HEPES pH 7.0, 5mM MgCl2, 1mM DTT, 0.01% Tween 20 and 50nM SEB®; with a range of concentrations of the inhibitors. The kinase reaction was carried out at the KM of ATP (77 µM) as well as that of Tk-Biotin substrate (1 µM). After 90 minutes, the reaction was stopped by addition of SA-XL665 at a concentration of 62.5 nM in HTRF® detection buffer containing EDTA. Finally 5 µL of TK antibody-cryptate was added to the reaction and the plate was incubated for additional 60 minutes. The fluorescence was read using the FlexStation (Molecular Devices) with excitation at 340 nm and emissions at 620nm (for Cryptate) and 665nm (for FRET). A ratio of the 2 emissions was calculated for each well and expressed as follows: Specific signal = Ratio(Sample)−Ratio(Negative) [formula] Ratio = (665nm/620nm) × 10^4 [formula] Mean Ratio = ∑Ratio/3(triplicates) [formula]
For each data point, % inhibition is calculated based on uninhibited reaction which is considered as 100% activity over no enzyme or substrate controls. Dose response data is then fit using a four parameter logistic equation using GraphPad Prism 5 software to determine inhibition constant 50(IC50).

In experiment [2] the test system is B cell activation as measured by CD69 expression in mouse splenocytes. Briefly: Inhibition of B cell activation as measured by CD69 expression in mouse splenocytes (flow cytometry). It is filed as cell-based. The conditions noted are these: C57/BL6 splenocytes, 3 µg/mL goat anti-mouse IgM, 18-20 hours, CD69 +ve cells within CD19; read-out: IC50 (nM) in B cell activation assay in Mouse spleenocytes. The source says: Inhibition of B cell activation as measured by CD69 expression in mouse splenocytes:
To test the effect of BTK inhibitors in suppressing B-cell receptor (BCR) mediated activation of B cells, we developed a flow cytometry based assay to analyze CD69 expression in B cell population among total splenocyte from the mouse. C57/BL6 mouse spleens were dissected out and splenocytes were isolated by mincing the tissue with a syringe plunger followed by RBC lysis (0.85% ammonium chloride, (Qualigens,Cat #21405) and several washes in PBS. Finally, cell were cultured in culture medium [RPMI medium (Sigma, Cat R6504) with 10% FBS (Gibco - Cat #10270).
Test compounds were diluted half log starting from 2 mM in 100% DMSO (Sigma, cat#D2650) (200X). 1x10^5 splenocytes were incubated with 1 µL of diluted test compounds in 200 µL culture medium in a U-bottom 96 well plate (Greiner) at 37°C with 5% CO2 for 30 minutes. Control wells received 1 µL of 100% DMSO without any compound. The cells were stimulated with 3 µg/mL goat anti-mouse IgM (Sigma, cat#M8644) and incubated for 18-20 hours. After the stimulation, cells were washed in cold PBS with 1% FBS and stained with 1:100 dilution of anti-CD69-PE (eBioscience, cat#12-0691-83) and anti-CD19-PE.Cy5 (eBioscience, cat#15-0193-83) for 1 hour on ice. Then the cells were washed 3 times with PBS with 1% FBS and analyzed by Guava Easycyte Mini flow cytometer system (Millipore). Flow cytometry data were analyzed using Weasel software (WEHI, Melbourne). B cells were gated using CD19 marker. Expression of CD69 was analyzed as percentage of CD69 +ve cells within CD19. Percent activity for each data point was calculated using following formula: [formula]
(§1) Percentage activity was fit using sigmoid dose response with variable slope logistic equation in GraphPad Prism 5 software to determine IC50.

The subject of experiment [3] is B cell activation as measured by CD69 expression in Human whole blood. The experiment is described as follows: Inhibition of B cell activation as measured by CD69 expression in Human whole blood (flow cytometry). Type of experiment: cell-based. The conditions noted are these: heparinized human whole blood, anti-IgD antibody 30 µg/mL, 4 hours, CD69 positive cells among CD20 B cells. On the procedure: Inhibition of B cell activation as measured by CD69 expression in Human whole blood
To test the effect of BTK inhibitors in suppressing B-cell receptor (BCR) mediated activation of B cells, we developed a flow cytometry based assay to analyze CD69 expression in B cell population in human whole blood. Freshly collected heparinized human whole blood (60 µL/well) was dispensed in 96-well U bottom plate (Greiner), treated with the test compound at a concentrations ranging from 10 µM to 0.3 nM (half log dilutions). 0.5% DMSO (Sigma, cat#D2650) was used as vehicle control. The whole blood was incubated with compounds for 1 hour, followed by stimulation with anti-IgD antibody (Goat Anti-Human IgD Antibody - affinity purified, Bethyl laboratories, cat#A80-106A) at a final concentration of 30 µg/mL at 37°C and 5% CO2 for 4 hours. Subsequently, 45 µL blood was transferred to 1.5 ml microcentrifuge tubes and 1.2 µL of anti-CD20-PE.Cy5 (BD Biosciences, cat#561761)and 1.6 µL of anti-CD69-PE (eBioscience, cat#12-0691-83) antibody were added and mixed properly by gently tapping the tubes. Blood was stained for 20 minutes at room temperature (RT). After antibody incubation, 1 mL pre-warmed 1X Lyse/Fix solution (BD Biosciences, cat#558049) was added and cells were incubated at RT for 10 minutes. Then the tubes were centrifuged at 450xg for 5 minutes at RT and supernatant was removed. Pellet was disrupted by gentle tapping, cells were washed with 1 mL freshly prepared wash buffer and centrifuged at 450xg for 5 minutes at RT. Supernatant was removed completely before resuspending cells in 200 µl of wash buffer and proceeded for acquisition in Guava Easy Cyte Mini instrument. Acquisition was done with following laser settings: FSC Gain: X 16, FSC fine gain 100%, SSC: 893V, GRN: 663V, YLW: 649V, RED: 802V, Threshold Parameters Offset: FSC 0.73 V Threshold 300 units. The cells were diluted in such a way so that cell conc. should not exceed 500 cells/µL and at least 5000 cells were acquired. Viable lymphocytes were gated from the forward and side scatter profile of cells and B cells were sub-gated based on CD20-PE.Cy5 staining. Percent of CD69-PE positive cells were calculated among B lymphocyte sub-gate using Weasel software. Percent activity for each data point was calculated using following formula: [formula]
as §1

T1 sequence (Q06187 whole entry): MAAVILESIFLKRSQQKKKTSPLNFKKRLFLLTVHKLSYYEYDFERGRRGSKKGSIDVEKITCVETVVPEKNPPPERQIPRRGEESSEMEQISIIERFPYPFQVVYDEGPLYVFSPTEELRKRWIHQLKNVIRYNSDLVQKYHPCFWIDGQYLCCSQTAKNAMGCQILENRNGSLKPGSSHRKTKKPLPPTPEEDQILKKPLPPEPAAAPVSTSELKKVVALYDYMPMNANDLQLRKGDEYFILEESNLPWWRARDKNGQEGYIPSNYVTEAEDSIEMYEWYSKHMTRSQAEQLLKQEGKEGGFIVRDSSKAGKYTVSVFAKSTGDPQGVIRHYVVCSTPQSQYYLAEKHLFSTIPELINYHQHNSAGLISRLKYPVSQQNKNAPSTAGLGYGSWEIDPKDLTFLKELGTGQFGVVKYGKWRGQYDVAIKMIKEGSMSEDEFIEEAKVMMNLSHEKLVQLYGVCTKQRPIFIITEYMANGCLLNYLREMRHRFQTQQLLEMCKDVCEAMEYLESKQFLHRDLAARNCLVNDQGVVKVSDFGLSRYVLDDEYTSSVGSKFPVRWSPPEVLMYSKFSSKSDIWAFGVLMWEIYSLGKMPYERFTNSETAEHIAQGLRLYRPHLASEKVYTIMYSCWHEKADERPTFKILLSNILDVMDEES

Take `O=C1c2c(F)cc(C3CC3)cc2OCCN1c1cc(F)cc(-c2ccnc3[nH]c(-c4ccc(OC5CCN(C6COC6)CC5)cn4)cc23)c1CO` [Example 11, 8-cyclopropyl-6-fluoro-4-[5-fluoro-2-(hydroxymethyl)-3-[2-[5-[[1-(oxetan-3-yl)-4-piperidyl]oxy]-2-pyridyl]-1H-pyrrolo[2,3-b]pyridin-4-yl]phenyl]-2,3-dihydro-1,4-benzoxazepin-5-one]: the IC50 in experiment [1] came out at 1.15 nM.

For the molecule `O=C1c2c(F)cc(C3CC3)cc2OCCN1c1cc(F)cc(-c2ccnc3[nH]c(-c4ccc(CN5CCOCC5)cn4)cc23)c1CO` [Example 4, 8-cyclopropyl-6-fluoro-4-[5-fluoro-2-(hydroxymethyl)-3-[2-[5-(morpholinomethyl)-2-pyridyl]-1H-pyrrolo[2,3-b]pyridin-4-yl]phenyl]-2,3-dihydro-1,4-benzoxazepin-5-one], the IC50 in experiment [1] came to 0.55 nM.

In the case of `CC(C)(O)CN1CC=C(c2cc3c(-c4cc(F)cc(N5CCOc6cc(C7CC7)ccc6C5=O)c4CO)ccnc3[nH]2)CC1` [Example 10, 8-cyclopropyl-4-[5-fluoro-2-(hydroxymethyl)-3-[2-[1-(2-hydroxy-2-methyl-propyl)-3,6-dihydro-2H-pyridin-4-yl]-1H-pyrrolo[2,3-b]pyridin-4-yl]phenyl]-2,3-dihydro-1,4-benzoxazepin-5-one], the figures for the IC50 in experiment [1] and in experiment [2] were 4 nM and 27 nM, respectively.

As to `O=C1c2c(F)cc(C3CC3)cc2OCCN1c1cc(F)cc(-c2ccnc3[nH]c(-c4ccc(CN5CCN(CC(F)F)CC5)cn4)cc23)c1CO` [Example 3, 8-cyclopropyl-4-[3-[2-[5-[[4-(2,2-difluoroethyl)piperazin-1-yl]methyl]-2-pyridyl]-1H-pyrrolo[2,3-b]pyridin-4-yl]-5-fluoro-2-(hydroxymethyl)phenyl]-6-fluoro-2,3-dihydro-1,4-benzoxazepin-5-one], the IC50 in experiment [1] came out at 0.65 nM; in experiment [2] it was 2.4 nM; in experiment [3], 54.2 nM.

Take `C[C@H]1CN(CC(F)F)CCN1Cc1ccc(-c2cc3c(-c4cc(F)cc(N5CCOc6cc(C7CC7)cc(F)c6C5=O)c4CO)ccnc3[nH]2)nc1` [Example 6, 8-cyclopropyl-4-[3-[2-[5-[[(2S)-4-(2,2-difluoroethyl)-2-methyl-piperazin-1-yl]methyl]-2-pyridyl]-1H-pyrrolo[2,3-b]pyridin-4-yl]-5-fluoro-2-(hydroxymethyl)phenyl]-6-fluoro-2,3-dihydro-1,4-benzoxazepin-5-one]: in experiment [1], the IC50 turned out to be 2.7 nM.

For `C[C@H]1CN(Cc2ccc(-c3cc4c(-c5cc(F)cc(N6CCOc7cc(C8CC8)cc(F)c7C6=O)c5CO)ccnc4[nH]3)nc2)CCN1CC(F)F` [Example 5, 8-cyclopropyl-4-[3-[2-[5-[[(3S)-4-(2,2-difluoroethyl)-3-methyl-piperazin-1-yl]methyl]-2-pyridyl]-1H-pyrrolo[2,3-b]pyridin-4-yl]-5-fluoro-2-(hydroxymethyl)phenyl]-6-fluoro-2,3-dihydro-1,4-benzoxazepin-5-one], the 50% inhibitory concentration (IC50) in experiment [1] came to 3 nM.

As to `O=C1c2ccc(C3CC3)cc2OCCN1c1cc(F)cc(-c2ccnc3[nH]c(C4=CCN(C5COC5)CC4)cc23)c1CO` [Example 9, 8-cyclopropyl-4-[5-fluoro-2-(hydroxymethyl)-3-[2-[1-(oxetan-3-yl)-3,6-dihydro-2H-pyridin-4-yl]-1H-pyrrolo[2,3-b]pyridin-4-yl]phenyl]-2,3-dihydro-1,4-benzoxazepin-5-one], the IC50 in experiment [1] was found to be 2.5 nM; in experiment [2], 47 nM.

For `C[C@@H]1CN(Cc2ccc(-c3cc4c(-c5cc(F)cc(N6CCOc7cc(C8CC8)cc(F)c7C6=O)c5CO)ccnc4[nH]3)nc2)CCN1CC(F)F` [Example 7, 8-cyclopropyl-4-[3-[2-[5-[[(3R)-4-(2,2-difluoroethyl)-3-methyl-piperazin-1-yl]methyl]-2-pyridyl]-1H-pyrrolo[2,3-b]pyridin-4-yl]-5-fluoro-2-(hydroxymethyl)phenyl]-6-fluoro-2,3-dihydro-1,4-benzoxazepin-5-one], in experiment [1], the IC50 worked out at 1.8 nM.

With `O=C1c2c(F)cc(C3CC3)cc2OCCN1c1cc(F)cc(-c2ccnc3[nH]c(-c4ccc(CN5CCN(C6COC6)CC5)cn4)cc23)c1CO` [Example 1, 8-cyclopropyl-6-fluoro-4-[5-fluoro-2-(hydroxymethyl)-3-[2-[5-[[4-(oxetan-3-yl)piperazin-1-yl]methyl]-2-pyridyl]-1H-pyrrolo[2,3-b]pyridin-4-yl]phenyl]-2,3-dihydro-1,4-benzoxazepin-5-one], the IC50 in experiment [2] amounted to 2.7 nM; in experiment [3] it was 16.5 nM.
